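Compound exposure: 48 hours, 5 concentrations, 96-well plates. GI50 = concentration required for 50% inhibition of growth. The concentration for full growth arrest is given as TGI.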
How the values were obtained:
Assay in all cases: growth of human tumour cells (NCI), 48 h
M14 melanoma = test system: M14 melanoma
CCRF-CEM leukemia = test system: CCRF-CEM leukemia
SNB-75 CNS = test system: SNB-75 CNS
COLO 205 colon = test system: COLO 205 colon
SK-MEL-28 melanoma = test system: SK-MEL-28 melanoma
SR leukemia = test system: SR leukemia
786-0 renal = test system: 786-0 renal
HCC-2998 colon = test system: HCC-2998 colon
UACC-62 melanoma = test system: UACC-62 melanoma
PC-3 prostate = test system: PC-3 prostate
UACC-257 melanoma = test system: UACC-257 melanoma
DU-145 prostate = test system: DU-145 prostate
NCI-H460 lung = test system: NCI-H460 lung
RPMI-8226 leukemia = test system: RPMI-8226 leukemia
RXF 393 renal = test system: RXF 393 renal
HCT-15 colon = test system: HCT-15 colon
NCI-H522 lung = test system: NCI-H522 lung
CAKI-1 renal = test system: CAKI-1 renal
SNB-19 CNS = test system: SNB-19 CNS
SF-539 CNS = test system: SF-539 CNS
SK-MEL-5 melanoma = test system: SK-MEL-5 melanoma
MALME-3M melanoma = test system: MALME-3M melanoma
HL-60(TB) leukemia = test system: HL-60(TB) leukemia
HOP-92 NSCLC = test system: HOP-92 NSCLC
OVCAR-8 ovarian = test system: OVCAR-8 ovarian
U251 CNS = test system: U251 CNS
MOLT-4 leukemia = test system: MOLT-4 leukemia
HT29 colon = test system: HT29 colon
SF-268 CNS = test system: SF-268 CNS
SN12C renal = test system: SN12C renal
KM12 colon = test system: KM12 colon
UO-31 renal = test system: UO-31 renal
SW-620 colon = test system: SW-620 colon
IGROV1 ovarian = test system: IGROV1 ovarian
TK-10 renal = test system: TK-10 renal
OVCAR-5 ovarian = test system: OVCAR-5 ovarian
HOP-62 NSCLC = test system: HOP-62 NSCLC
LOX IMVI melanoma = test system: LOX IMVI melanoma
A498 renal = test system: A498 renal
SK-MEL-2 melanoma = test system: SK-MEL-2 melanoma
HCT-116 colon = test system: HCT-116 colon
K-562 leukemia = test system: K-562 leukemia
NCI/ADR-RES ovarian = test system: NCI/ADR-RES ovarian
OVCAR-3 ovarian = test system: OVCAR-3 ovarian
BT-549 breast = test system: BT-549 breast
HS 578T breast = test system: HS 578T breast
SF-295 CNS = test system: SF-295 CNS
EKVX NSCLC = test system: EKVX NSCLC
ACHN renal = test system: ACHN renal
NCI-H23 lung = test system: NCI-H23 lung
MCF7 breast = test system: MCF7 breast
T-47D breast = test system: T-47D breast
MDA-MB-231 breast = test system: MDA-MB-231 breast
NCI-H226 lung = test system: NCI-H226 lung
OVCAR-4 ovarian = test system: OVCAR-4 ovarian
A549 NSCLC = test system: A549 NSCLC
MDA-MB-435 = test system: MDA-MB-435

Which results are given for `N#Cc1cccc(NC(=O)c2cc(-c3ccc(F)cc3F)ccc2O)c1`?
GI50 (M14 melanoma): 1940 nM; TGI (M14 melanoma): 7.84 µM; GI50 (CCRF-CEM leukemia): 3.07 µM; TGI (CCRF-CEM leukemia): 47.7 µM; GI50 (SNB-75 CNS): 2080 nM; TGI (SNB-75 CNS): 8.05 µM; GI50 (COLO 205 colon): 10.9 µM; TGI (COLO 205 colon): 28.2 µM; GI50 (SK-MEL-28 melanoma): 2070 nM; TGI (SK-MEL-28 melanoma): 14.8 µM; GI50 (SR leukemia): 3.72 µM; TGI (SR leukemia): 89.2 µM; GI50 (786-0 renal): 2690 nM; TGI (786-0 renal): 19.4 µM; GI50 (HCC-2998 colon): 2970 nM; TGI (HCC-2998 colon): 10.1 µM; GI50 (UACC-62 melanoma): 870 nM; TGI (UACC-62 melanoma): 4.42 µM; GI50 (PC-3 prostate): 2880 nM; TGI (PC-3 prostate): 9.88 µM; GI50 (UACC-257 melanoma): 1530 nM; TGI (UACC-257 melanoma): 5.84 µM; GI50 (DU-145 prostate): 3.26 µM; TGI (DU-145 prostate): > 100 µM; GI50 (NCI-H460 lung): 2750 nM; TGI (NCI-H460 lung): 11.2 µM; GI50 (RPMI-8226 leukemia): 675 nM; TGI (RPMI-8226 leukemia): 3.16 µM; GI50 (RXF 393 renal): 2690 nM; TGI (RXF 393 renal): 7.63 µM; GI50 (HCT-15 colon): 2740 nM; TGI (HCT-15 colon): 11.4 µM; GI50 (NCI-H522 lung): 1640 nM; TGI (NCI-H522 lung): 12.1 µM; GI50 (CAKI-1 renal): 2310 nM; TGI (CAKI-1 renal): 10.1 µM; GI50 (SNB-19 CNS): 2630 nM; TGI (SNB-19 CNS): 18.4 µM; GI50 (SF-539 CNS): 3.07 µM; TGI (SF-539 CNS): 10.5 µM; GI50 (SK-MEL-5 melanoma): 728 nM; TGI (SK-MEL-5 melanoma): 2150 nM; GI50 (MALME-3M melanoma): 1440 nM; TGI (MALME-3M melanoma): 5.48 µM; GI50 (HL-60(TB) leukemia): 2170 nM; TGI (HL-60(TB) leukemia): 5.6 µM; GI50 (HOP-92 NSCLC): 294 nM; TGI (HOP-92 NSCLC): 2430 nM; GI50 (OVCAR-8 ovarian): 2880 nM; TGI (OVCAR-8 ovarian): > 100 µM; GI50 (U251 CNS): 2790 nM; TGI (U251 CNS): > 100 µM; GI50 (MOLT-4 leukemia): 2460 nM; TGI (MOLT-4 leukemia): 6.65 µM; GI50 (HT29 colon): 4.73 µM; TGI (HT29 colon): 37.3 µM; GI50 (SF-268 CNS): 3.11 µM; TGI (SF-268 CNS): > 100 µM; GI50 (SN12C renal): 2100 nM; TGI (SN12C renal): 8.32 µM; GI50 (KM12 colon): 3000 nM; TGI (KM12 colon): 10.8 µM; GI50 (UO-31 renal): 2260 nM; TGI (UO-31 renal): 6.99 µM; GI50 (SW-620 colon): 3.02 µM; TGI (SW-620 colon): 22.3 µM; GI50 (IGROV1 ovarian): 2980 nM; TGI (IGROV1 ovarian): 68.6 µM; GI50 (TK-10 renal): 3.24 µM; TGI (TK-10 renal): 20.1 µM; GI50 (OVCAR-5 ovarian): 3.2 µM; TGI (OVCAR-5 ovarian): 25.5 µM; GI50 (HOP-62 NSCLC): 2970 nM; TGI (HOP-62 NSCLC): 11 µM; GI50 (LOX IMVI melanoma): 2450 nM; TGI (LOX IMVI melanoma): 6.58 µM; GI50 (A498 renal): 1270 nM; TGI (A498 renal): 4.3 µM; GI50 (SK-MEL-2 melanoma): 1760 nM; TGI (SK-MEL-2 melanoma): 5.49 µM; GI50 (HCT-116 colon): 2570 nM; TGI (HCT-116 colon): 10.6 µM; GI50 (K-562 leukemia): 1980 nM; TGI (K-562 leukemia): > 100 µM; GI50 (NCI/ADR-RES ovarian): 2190 nM; TGI (NCI/ADR-RES ovarian): 6.84 µM; GI50 (OVCAR-3 ovarian): 2170 nM; TGI (OVCAR-3 ovarian): 11.7 µM; GI50 (BT-549 breast): 2310 nM; TGI (BT-549 breast): 7.06 µM; GI50 (HS 578T breast): 2310 nM; TGI (HS 578T breast): 8.91 µM; GI50 (SF-295 CNS): 2160 nM; TGI (SF-295 CNS): 5.19 µM; GI50 (EKVX NSCLC): 2650 nM; TGI (EKVX NSCLC): 10.9 µM; GI50 (ACHN renal): 2560 nM; TGI (ACHN renal): 7.89 µM; GI50 (NCI-H23 lung): 1430 nM; TGI (NCI-H23 lung): 4.35 µM; GI50 (MCF7 breast): 2150 nM; TGI (MCF7 breast): 9.72 µM; GI50 (T-47D breast): 1100 nM; TGI (T-47D breast): 6.83 µM; GI50 (MDA-MB-231 breast): 2010 nM; TGI (MDA-MB-231 breast): 5.23 µM; GI50 (NCI-H226 lung): 1670 nM; TGI (NCI-H226 lung): 6.43 µM; GI50 (OVCAR-4 ovarian): 2110 nM; TGI (OVCAR-4 ovarian): 23 µM; GI50 (A549 NSCLC): 3.09 µM; TGI (A549 NSCLC): 28.4 µM; GI50 (MDA-MB-435): 2380 nM; TGI (MDA-MB-435): 9.32 µM

From PubChem BioAssay (NCI)
